In paper doi:10.1101/2025.10.16.682859v2 (biorxiv, 2025):

Experiments:
[1] = molecular target: T1, human argininosuccinate synthetase (ASS1) (Homo sapiens, UniProt P00966); test: differential scanning fluorimetry; type: binding; details: 5 mM ATP, 10 mM MgCl2, pH 8.0
T1 sequence (P00966 1-412): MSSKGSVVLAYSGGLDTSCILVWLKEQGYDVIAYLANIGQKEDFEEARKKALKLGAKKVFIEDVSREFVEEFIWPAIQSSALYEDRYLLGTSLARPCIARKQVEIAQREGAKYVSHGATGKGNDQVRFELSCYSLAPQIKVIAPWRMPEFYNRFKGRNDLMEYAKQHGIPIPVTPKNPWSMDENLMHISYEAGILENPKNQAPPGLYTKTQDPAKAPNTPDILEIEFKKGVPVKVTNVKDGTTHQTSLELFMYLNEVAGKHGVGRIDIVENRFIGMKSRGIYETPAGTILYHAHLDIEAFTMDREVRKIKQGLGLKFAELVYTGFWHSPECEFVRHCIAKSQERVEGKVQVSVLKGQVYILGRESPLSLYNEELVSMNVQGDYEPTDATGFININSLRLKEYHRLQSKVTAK

[2] = molecular target: T2, human asparagine synthetase (ASNS) (Homo sapiens, UniProt P08243); test: HPLC end-point assay of L-asparagine formation; type: biochemical
T2 sequence (P08243 2-561): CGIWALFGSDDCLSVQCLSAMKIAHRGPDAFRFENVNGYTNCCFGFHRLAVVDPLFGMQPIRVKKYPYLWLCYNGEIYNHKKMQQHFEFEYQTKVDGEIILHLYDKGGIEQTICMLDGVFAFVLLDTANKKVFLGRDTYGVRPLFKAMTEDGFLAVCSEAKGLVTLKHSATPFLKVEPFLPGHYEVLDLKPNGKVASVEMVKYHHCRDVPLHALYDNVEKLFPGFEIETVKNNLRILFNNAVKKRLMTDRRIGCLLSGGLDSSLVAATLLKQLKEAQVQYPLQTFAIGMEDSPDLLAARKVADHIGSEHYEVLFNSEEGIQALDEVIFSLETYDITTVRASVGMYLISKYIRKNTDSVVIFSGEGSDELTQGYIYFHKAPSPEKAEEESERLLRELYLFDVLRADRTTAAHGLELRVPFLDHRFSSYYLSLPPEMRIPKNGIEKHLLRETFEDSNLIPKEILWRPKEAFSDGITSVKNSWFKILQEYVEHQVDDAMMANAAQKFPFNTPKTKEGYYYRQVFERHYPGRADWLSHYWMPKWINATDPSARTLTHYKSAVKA

[3] = molecular target: T3, ASNS (endogenous, HEK-293A cells) (Homo sapiens, UniProt P08243); test: cellular thermal shift, immunoblot; type: cell-based; details: cells treated with 50 nM for 1 h, lysate heated 25-90 °C
T3 sequence (P08243 2-561): T2 sequence (P08243 2-561)

| Tm [1] [°C] | IC50 [2] [nM] | Tm [3] [°C] | SMILES |
| --- | --- | --- | --- |
| 47 to 52 |  |  | Nc1ncnc2c1ncn2[C@@H]1O[C@H](COP(=O)(O)OP(=O)(O)OP(=O)(O)O)[C@@H](O)[C@H]1O [ATP] |
|  | 500 ± 200 | 45 to 54 | CC[C@H](N)C(=O)N1C[C@@H](c2ccc(F)cc2)[C@H](O)[C@@H]1C(=O)NC(c1ccccc1)c1ccccc1 [compound 17, ASX-173] |
